The test deals with Bryophyte (adult stage). As to the kind of experiment: Essay 1: post-emergence activity on Bryophyte. Format: in vivo. The conditions noted are these: spraying 100 ml/m^2; 7 days after treatment; score 0 = healthy plant, 6 = dead plant; FIG. 3. As to the method:
In order to assess the post-emergence activity of compositions according to the invention on Bryophyte (adult stage), different compositions according to the invention (HE1 and HE2—see Table 3) were tested by spraying (100 ml/m^2) on Bryophytes (adult stage). Pelargonic acid at a concentration of 30 g/L (PA) (Compo®) was used as a positive control and a composition without the active substance (essential oil) (SSA) was also tested. [table] For Bryophytes, it is recognized that the score of 0 represents a healthy and undamaged plant while a score of 6 represents a dead plant. These scores were determined 7 days after treatment with the different compositions.

One molecule from patent US20210251218A1, “BIO-HERBICIDE BASED ON ESSENTIAL OIL” (Université de Liège, priority 2018, published 2021) can be followed below.

SMILES strings stand for the structures.

`CCCCCCCCC(=O)O` [pelargonic acid] gave a toxicity score of 6.
